# Reference: PubChem BioAssay AID1259407 (Chemical Carcinogenesis Research Information System (CCRIS), 2018)
# The source made the active and inactive calls. How the calls were made is not given here.
# Test system: CCRIS mutagenicity, Ames/micronucleus/aberration tests
# Experiment: CCRIS mutagenicity studies
# [1] = Test System: AMES SALMONELLA TYPHIMURIUM, Strain/Indicator: TA98, Metabolic Activation: NONE, Method: PREINCUBATION
# [2] = Test System: AMES SALMONELLA TYPHIMURIUM, Strain/Indicator: TA100, Metabolic Activation: NONE, Method: PREINCUBATION
# [3] = Test System: AMES SALMONELLA TYPHIMURIUM, Strain/Indicator: TA98, Metabolic Activation: NONE, Method: STANDARD PLATE
# [4] = Test System: AMES SALMONELLA TYPHIMURIUM, Strain/Indicator: TA100, Metabolic Activation: NONE, Method: STANDARD PLATE
# [5] = Test System: AMES SALMONELLA TYPHIMURIUM, Strain/Indicator: TA98, Metabolic Activation: RAT, LIVER, S-9, AROCLOR 1254, Method: STANDARD PLATE
# [6] = Test System: AMES SALMONELLA TYPHIMURIUM, Strain/Indicator: TA100, Metabolic Activation: RAT, LIVER, S-9, AROCLOR 1254, Method: STANDARD PLATE
compound,measurement,setting,value
Nc1ccc(S(=O)(=O)O)c2ccccc12,mutagenic call,[1],inactive; negative
same,mutagenic call,"Test System: AMES SALMONELLA TYPHIMURIUM, Strain/Indicator: TA98, Metabolic Activation: RAT LIVER S-9, PHENOBARBITAL AND BETA-NAPHTHOFLAVONE, Method: PREINCUBATION",inactive; negative
same,mutagenic call,[2],inactive; negative
same,mutagenic call,"Test System: AMES SALMONELLA TYPHIMURIUM, Strain/Indicator: TA100, Metabolic Activation: RAT LIVER S-9, PHENOBARBITAL AND BETA-NAPHTHOFLAVONE, Method: PREINCUBATION",inactive; negative
same,mutagenic call,"Test System: AMES SALMONELLA TYPHIMURIUM, Strain/Indicator: TA1535, Metabolic Activation: NONE, Method: PREINCUBATION",inactive; negative
same,mutagenic call,"Test System: AMES SALMONELLA TYPHIMURIUM, Strain/Indicator: TA1535, Metabolic Activation: RAT LIVER S-9, PHENOBARBITAL AND BETA-NAPHTHOFLAVONE, Method: PREINCUBATION",inactive; negative
same,mutagenic call,"Test System: AMES SALMONELLA TYPHIMURIUM, Strain/Indicator: TA1537, Metabolic Activation: NONE, Method: PREINCUBATION",inactive; negative
same,mutagenic call,"Test System: AMES SALMONELLA TYPHIMURIUM, Strain/Indicator: TA1537, Metabolic Activation: RAT LIVER S-9, PHENOBARBITAL AND BETA-NAPHTHOFLAVONE, Method: PREINCUBATION",inactive; negative
same,mutagenic call,"Test System: AMES SALMONELLA TYPHIMURIUM, Strain/Indicator: TA1538, Metabolic Activation: NONE, Method: PREINCUBATION",inactive; negative
same,mutagenic call,"Test System: AMES SALMONELLA TYPHIMURIUM, Strain/Indicator: TA1538, Metabolic Activation: RAT LIVER S-9, PHENOBARBITAL AND BETA-NAPHTHOFLAVONE, Method: PREINCUBATION",inactive; negative
same,mutagenic call,"Test System: E.COLI, Strain/Indicator: WP2UVRA, Metabolic Activation: NONE, Method: PREINCUBATION",inactive; negative
same,mutagenic call,"Test System: E.COLI, Strain/Indicator: WP2UVRA, Metabolic Activation: RAT LIVER S-9, PHENOBARBITAL AND BETA-NAPHTHOFLAVONE, Method: PREINCUBATION",inactive; negative
CC(/C=C(/C#N)c1ccc(Br)cc1)C(c1ccccc1)C(C#N)c1ccc(Br)cc1 (stereo not drawn),mutagenic call,"Test System: AMES SALMONELLA TYPHIMURIUM, Strain/Indicator: TA97A, Metabolic Activation: NONE, Method: STANDARD PLATE",inactive; negative
O=c1c2c(O)cccc2oc2cc3c(c(O)c12)[C@@H]1CCO[C@@H]1O3,mutagenic call,"Test System: AMES SALMONELLA TYPHIMURIUM, Strain/Indicator: TA98, Metabolic Activation: RAT, LIVER, S-9, PHENOBARBITAL, Method: STANDARD PLATE",inactive; negative
same,mutagenic call,"Test System: AMES SALMONELLA TYPHIMURIUM, Strain/Indicator: TA100, Metabolic Activation: RAT, LIVER, S-9, PHENOBARBITAL, Method: STANDARD PLATE",inactive; negative
O=[N+]([O-])c1ccc(I)c([N+](=O)[O-])c1,mutagenic call,"Test System: AMES SALMONELLA TYPHIMURIUM, Strain/Indicator: TA98(1,8-DNP6), Metabolic Activation: NONE, Method: PREINCUBATION",active; positive
same,mutagenic call,"Test System: AMES SALMONELLA TYPHIMURIUM, Strain/Indicator: TA98(NR), Metabolic Activation: NONE, Method: PREINCUBATION",active; positive
same,mutagenic call,[1],active; positive
CCN(CC)c1ccc2c(-c3ccc(S(=O)(=O)O)cc3S(=O)(=O)[O-])c3ccc(=[N+](CC)CC)cc-3oc2c1,mutagenic call,"End Point: IN VIVO MICRONUCLEUS, Test System: BONE MARROW POLYCHROMATIC ERYTHROCYTES, Species: MOUSE, Strain/Sex: DDY/MALE, Route: IP",inactive; negative
same,mutagenic call,"Test System: AMES SALMONELLA TYPHIMURIUM, Strain/Indicator: TA98, Metabolic Activation: HAMSTER, LIVER, S-9, AROCLOR 1254 (10%), Method: STANDARD PLATE",active; positive
same,mutagenic call,[3],inactive; negative
same,mutagenic call,"Test System: AMES SALMONELLA TYPHIMURIUM, Strain/Indicator: TA98, Metabolic Activation: RAT, LIVER, S-9, AROCLOR 1254 (10%), Method: STANDARD PLATE",active; positive
same,mutagenic call,"Test System: AMES SALMONELLA TYPHIMURIUM, Strain/Indicator: TA100, Metabolic Activation: HAMSTER, LIVER, S-9, AROCLOR 1254 (10%), Method: STANDARD PLATE",inactive; negative
same,mutagenic call,[4],inactive; negative
same,mutagenic call,"Test System: AMES SALMONELLA TYPHIMURIUM, Strain/Indicator: TA100, Metabolic Activation: RAT, LIVER, S-9, AROCLOR 1254 (10%), Method: STANDARD PLATE",inactive; negative
same,mutagenic call,"Test System: AMES SALMONELLA TYPHIMURIUM, Strain/Indicator: TA1538, Metabolic Activation: NONE, Method: STANDARD PLATE",inactive; negative
same,mutagenic call,"Test System: AMES SALMONELLA TYPHIMURIUM, Strain/Indicator: TA1538, Metabolic Activation: RAT, LIVER, S-9, AROCLOR 1254, Method: STANDARD PLATE",inactive; negative
same,mutagenic call,"Test System: MOUSE LYMPHOMA, Strain/Indicator: L5178Y (TK+/TK-), Metabolic Activation: NONE, Method: SUSPENSION/PLATE",inactive; negative
same,mutagenic call,"Test System: MOUSE LYMPHOMA, Strain/Indicator: L5178Y (TK+/TK-), Metabolic Activation: RAT, LIVER, S-9, AROCLOR 1254, Method: SUSPENSION/PLATE",active; positive
O=S(=O)(O)c1cccc2cccnc12,mutagenic call,[3],inactive; negative
same,mutagenic call,[5],inactive; negative
same,mutagenic call,[4],inactive; negative
same,mutagenic call,[6],inactive; negative
same,mutagenic call,"Test System: AMES SALMONELLA TYPHIMURIUM, Strain/Indicator: TA1535, Metabolic Activation: NONE, Method: STANDARD PLATE",inactive; negative
same,mutagenic call,"Test System: AMES SALMONELLA TYPHIMURIUM, Strain/Indicator: TA1535, Metabolic Activation: RAT, LIVER, S-9, AROCLOR 1254, Method: STANDARD PLATE",inactive; negative
same,mutagenic call,"Test System: AMES SALMONELLA TYPHIMURIUM, Strain/Indicator: TA1537, Metabolic Activation: NONE, Method: STANDARD PLATE",inactive; negative
same,mutagenic call,"Test System: AMES SALMONELLA TYPHIMURIUM, Strain/Indicator: TA1537, Metabolic Activation: RAT, LIVER, S-9, AROCLOR 1254, Method: STANDARD PLATE",inactive; negative
Cc1c(N=O)c(=O)n(-c2ccccc2)n1C,mutagenic call,"Test System: AMES SALMONELLA TYPHIMURIUM, Strain/Indicator: TA97, Metabolic Activation: NONE, Method: STANDARD PLATE",active; positive
same,mutagenic call,"Test System: AMES SALMONELLA TYPHIMURIUM, Strain/Indicator: TA97, Metabolic Activation: RAT, LIVER, S-9, AROCLOR 1254, Method: STANDARD PLATE",active; positive
same,mutagenic call,[3],active; positive
same,mutagenic call,[5],active; positive
same,mutagenic call,[4],active; positive
same,mutagenic call,[6],active; positive
same,mutagenic call,"Test System: AMES SALMONELLA TYPHIMURIUM, Strain/Indicator: TA102, Metabolic Activation: NONE, Method: STANDARD PLATE",active; positive
same,mutagenic call,"Test System: AMES SALMONELLA TYPHIMURIUM, Strain/Indicator: TA102, Metabolic Activation: RAT, LIVER, S-9, AROCLOR 1254, Method: STANDARD PLATE",active; positive
same,mutagenic call,"Test System: AMES SALMONELLA TYPHIMURIUM, Strain/Indicator: TA104, Metabolic Activation: NONE, Method: STANDARD PLATE",active; positive
same,mutagenic call,"Test System: AMES SALMONELLA TYPHIMURIUM, Strain/Indicator: TA104, Metabolic Activation: RAT, LIVER, S-9, AROCLOR 1254, Method: STANDARD PLATE",active; positive
CC(C)(C)OC(=O)N/N=C/c1c[n+]([O-])c2ccccc2[n+]1[O-],mutagenic call,[1],active; positive
same,mutagenic call,"Test System: AMES SALMONELLA TYPHIMURIUM, Strain/Indicator: TA98, Metabolic Activation: S-9, Method: PREINCUBATION",active; positive
same,mutagenic call,[2],active; positive
same,mutagenic call,"Test System: AMES SALMONELLA TYPHIMURIUM, Strain/Indicator: TA100, Metabolic Activation: S-9, Method: PREINCUBATION",active; positive
same,mutagenic call,"Test System: E. COLI, Strain/Indicator: WP2 UVRA (PKM101), Metabolic Activation: NONE",active; positive
same,mutagenic call,"Test System: E. COLI, Strain/Indicator: WP2 UVRA (PKM101), Metabolic Activation: S-9",active; positive
